Reference: PMC6345968, “Structural basis for species-selective targeting of Hsp90 in a pathogenic fungus” (Nature Communications, 2019)
Read-outs that look alike come from different tables or passages of the source.

Tests used:
[1] = biological target: T1, Hsp90 in C. albicans (SC5314) lysate (Candida albicans, UniProt P46598); experiment: biochemical; type: binding; conditions: for FP signal: raw
T1 construct: endogenous in cells; host or cells: C. albicans SC5314 whole-cell lysate

Hsp90 in HEPG2 lysate = conditions: for FP signal: raw
[2] = SC5314 lysate, 0.457 nM compound
[3] = SC5314 lysate, 1.372 nM compound
[4] = SC5314 lysate, 4.115 nM compound
[5] = SC5314 lysate, 12.346 nM compound
[6] = SC5314 lysate, 37.037 nM compound
[7] = SC5314 lysate, 111.111 nM compound
[8] = SC5314 lysate, 333.333 nM compound
[9] = SC5314 lysate, 1000 nM compound
[10] = SC5314 lysate, 3000 nM compound

T1 sequence (P46598 whole entry): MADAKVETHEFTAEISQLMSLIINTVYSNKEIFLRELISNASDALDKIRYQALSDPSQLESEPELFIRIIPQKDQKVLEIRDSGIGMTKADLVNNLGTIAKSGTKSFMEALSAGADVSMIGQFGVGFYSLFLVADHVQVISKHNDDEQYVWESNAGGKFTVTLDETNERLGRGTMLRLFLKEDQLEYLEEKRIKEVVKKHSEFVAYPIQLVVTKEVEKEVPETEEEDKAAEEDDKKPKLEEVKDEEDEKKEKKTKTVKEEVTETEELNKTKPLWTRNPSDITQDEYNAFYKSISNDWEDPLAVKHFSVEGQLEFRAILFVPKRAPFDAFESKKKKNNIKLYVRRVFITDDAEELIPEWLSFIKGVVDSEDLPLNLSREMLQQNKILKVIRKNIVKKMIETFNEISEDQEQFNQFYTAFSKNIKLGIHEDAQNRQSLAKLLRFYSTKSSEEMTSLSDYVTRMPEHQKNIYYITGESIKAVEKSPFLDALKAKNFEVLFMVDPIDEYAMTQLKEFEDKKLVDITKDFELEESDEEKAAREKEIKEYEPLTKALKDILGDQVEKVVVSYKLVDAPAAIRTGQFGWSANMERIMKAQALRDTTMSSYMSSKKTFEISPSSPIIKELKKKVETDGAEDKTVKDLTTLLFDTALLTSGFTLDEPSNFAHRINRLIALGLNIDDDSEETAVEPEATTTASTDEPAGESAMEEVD

COc1ccccc1CON=C1C=CC=CC2OC2CC(C)OC(=O)c2c(O)cc(O)c(Cl)c2C1 (mixture of isomers) [compound 226]
Ratio re. GdA ([1]; EC50 relative to GdA, SC5314 lysate): 24.5326
FP signal (raw) ([1]; SC5314 lysate, 0.457 nM): 193
FP signal relative to 0 nM [1, 2]: 0.9461
FP signal [1, 2]: 193
FP signal (raw) ([1]; SC5314 lysate, 1.372 nM): 197
FP signal relative to 0 nM [1, 3]: 0.9657
FP signal [1, 3]: 197
FP signal (raw) ([1]; SC5314 lysate, 4.115 nM): 190
FP signal relative to 0 nM [1, 4]: 0.9314
FP signal [1, 4]: 190
FP signal (raw) ([1]; SC5314 lysate, 12.346 nM): 193
FP signal relative to 0 nM [1, 5]: 0.9461
FP signal [1, 5]: 193
FP signal (raw) ([1]; SC5314 lysate, 37.037 nM): 190
FP signal relative to 0 nM [1, 6]: 0.9314
FP signal [1, 6]: 190
FP signal (raw) ([1]; SC5314 lysate, 111.111 nM): 176
FP signal relative to 0 nM [1, 7]: 0.8627
FP signal [1, 7]: 176
FP signal (raw) ([1]; SC5314 lysate, 333.333 nM): 131
FP signal relative to 0 nM [1, 8]: 0.6422
FP signal [1, 8]: 131
FP signal (raw) ([1]; SC5314 lysate, 1000 nM): 57
FP signal relative to 0 nM [1, 9]: 0.2794
FP signal [1, 9]: 57
FP signal (raw) ([1]; SC5314 lysate, 3000 nM): 38
FP signal relative to 0 nM [1, 10]: 0.1863
FP signal [1, 10]: 38
EC50 ([1]; SC5314 lysate, not normalized, oxime panel experiment 220817, read-out: EC50): 417 nM
HepG2/SC5314 ([1]; ratio of GdA-normalized EC50s, human over fungal lysate): 1.34
HepG2/SC5314 ([1]; ratio of GdA-relative EC50 ratios, HepG2 over SC5314): 1.34
Ratio rel. GdA (HepG2) (Hsp90 in HEPG2 lysate; EC50 / EC50 of GdA in HepG2 lysate): 32.872
Ratio rel. GdA (HepG2) (Hsp90 in HEPG2 lysate; EC50 relative to GdA, HEPG2 lysate): 32.872
FP signal, Fxn Control (Hsp90 in HEPG2 lysate; HEPG2 lysate, log concentration 0.137354 (1.372 nM)): 0.9856
FP signal, Fxn Control (Hsp90 in HEPG2 lysate; HEPG2 lysate, log concentration 0.61437 (4.115 nM)): 0.9952
FP signal, Fxn Control (Hsp90 in HEPG2 lysate; HEPG2 lysate, log concentration 1.09153 (12.346 nM)): 0.9952
FP signal, Fxn Control (Hsp90 in HEPG2 lysate; HEPG2 lysate, log concentration 1.56864 (37.037 nM)): 0.9809
FP signal, Fxn Control (Hsp90 in HEPG2 lysate; HEPG2 lysate, log concentration 2.04576 (111.111 nM)): 0.9426
FP signal, Fxn Control (Hsp90 in HEPG2 lysate; HEPG2 lysate, log concentration 2.52288 (333.333 nM)): 0.8517
FP signal, Fxn Control (Hsp90 in HEPG2 lysate; HEPG2 lysate, log concentration 3 (1000 nM)): 0.445
FP signal, Fxn Control (Hsp90 in HEPG2 lysate; HEPG2 lysate, log concentration 3.47712 (3000 nM)): 0.2105
FP signal, Fxn Control (Hsp90 in HEPG2 lysate; HEPG2 lysate, log concentration -0.340084 (0.457 nM)): 0.9713
FP signal (raw) (Hsp90 in HEPG2 lysate; HepG2 lysate, 0.457 nM): 203
FP signal (Hsp90 in HEPG2 lysate; HepG2 lysate, 0.457 nM compound): 203
FP signal (raw) (Hsp90 in HEPG2 lysate; HepG2 lysate, 1.372 nM): 206
FP signal (Hsp90 in HEPG2 lysate; HepG2 lysate, 1.372 nM compound): 206
FP signal (raw) (Hsp90 in HEPG2 lysate; HepG2 lysate, 4.115 nM): 208
FP signal (Hsp90 in HEPG2 lysate; HepG2 lysate, 4.115 nM compound): 208
FP signal (raw) (Hsp90 in HEPG2 lysate; HepG2 lysate, 12.346 nM): 208
FP signal (Hsp90 in HEPG2 lysate; HepG2 lysate, 12.346 nM compound): 208
FP signal (raw) (Hsp90 in HEPG2 lysate; HepG2 lysate, 37.037 nM): 205
FP signal (Hsp90 in HEPG2 lysate; HepG2 lysate, 37.037 nM compound): 205
FP signal (raw) (Hsp90 in HEPG2 lysate; HepG2 lysate, 111.111 nM): 197
FP signal (Hsp90 in HEPG2 lysate; HepG2 lysate, 111.111 nM compound): 197
FP signal (raw) (Hsp90 in HEPG2 lysate; HepG2 lysate, 333.333 nM): 178
FP signal (Hsp90 in HEPG2 lysate; HepG2 lysate, 333.333 nM compound): 178
FP signal (raw) (Hsp90 in HEPG2 lysate; HepG2 lysate, 1000 nM): 93
FP signal (Hsp90 in HEPG2 lysate; HepG2 lysate, 1000 nM compound): 93
FP signal (raw) (Hsp90 in HEPG2 lysate; HepG2 lysate, 3000 nM): 44
FP signal (Hsp90 in HEPG2 lysate; HepG2 lysate, 3000 nM compound): 44
EC50 (Hsp90 in HEPG2 lysate; HepG2 lysate, oxime panel experiment 220817): 729 nM
